Test results taken from patent EP1506969B1, “Compounds with growth hormone releasing properties” (Helsinn Therapeutics (U.S.), Inc., priority 1998, dated 2010).
Square brackets hold non-standard residues; d marks the D form. Peptide text beside a SMILES is read from it. d2Nal = N[C@H](Cc1ccc2ccccc2c1)C(=O)O

Key:
carboxypeptidase Y and B = experiment: Metabolic stability in carboxypeptidase mix (ESMS, selected ion monitoring); conditions: stability: decrease in SIM signal after 24 h in degradation solution; carboxypeptidase Y and B in 50 mM ammoniumacetate pH 4.5, 37°C
Procedure: Compounds of formula I may be evaluated for their metabolic stability using the procedure described below:
(§1) Compounds is dissolved at a concentration of 1 mg/ml in water. 25 ml of this solution is added to 175 ml of the respective enzyme-solution (resulting in an enzyme:substrate ratio (w/w) of approximately 1:5). The solution is left at 37°C overnight. 10 ml of the various degradation solutions is analyzed against a corresponding zero-sample using flow injection electrospray mass spectrometry (ESMS) with selected ion monitoring of the molecular ion. If the signal has decreased more than 20% compared to the zero-sample, the remainder of the solution is analyzed by HPLC and mass spectrometry in order to identify the extent and site(s) of degradation precisely.
(§2) Enzymes (trypsin, chymotrypsin, elastase aminopeptidase M and carboxypeptidase Y and B) were all purchased from Boehringer Mannheim GmbH (Mannheim, Germany)
Carboxypeptidase mix: carboxypeptidase Y and B in 50 mM ammoniumacetate pH 4.5 (all concentrations 0.025 mg/ml).
(§3) Mass spectrometric analysis was performed using two different mass spectrometers. […]
(§4) Quantification of the compounds (before and after degradation) was done on the API III instrument using single ion monitoring of the molecular ion in question with flow injection of the analyte. […]

[1] = tested on: trypsin, chymotrypsin and elastase; experiment: Metabolic stability in pancreatic enzyme mix (ESMS, selected ion monitoring); conditions: stability: decrease in SIM signal after 24 h in degradation solution, chymotrypsin and elastase in 100 mM ammoniumbicarbonate pH 8.0, 37°C
Procedure: as §1, §2
Pancreatic enzyme mix: trypsin, chymotrypsin and elastase in 100 mM ammoniumbicarbonate pH 8.0 (all concentrations 0.025 mg/ml).
as §3, §4

Compound | Carboxy-peptidase mix (carboxypeptidase Y and B) | Pan. enzyme mix [1]
C[C@H](NC(=O)[C@@H](Cc1ccc2ccccc2c1)NC(=O)[C@@H](C)N)C(=O)N[C@@H](Cc1c[nH]c2ccccc12)C(=O)N[C@H](Cc1ccccc1)C(=O)N[C@@H](CCCCN)C(N)=O [GHRP-2] (H-[dA][d2Nal]AW[dF]K-NH2) | - (Unstable (more than 20% decrease in SIM signal after 24 h in degradation solution)) | - (Unstable (more than 20% decrease in SIM signal after 24 h in degradation solution))
C[C@H](NC(=O)[C@@H](Cc1c[nH]c2ccccc12)NC(=O)[C@@H](N)Cc1c[nH]cn1)C(=O)N[C@@H](Cc1c[nH]c2ccccc12)C(=O)N[C@H](Cc1ccccc1)C(=O)N[C@@H](CCCCN)C(N)=O [GHRP-6] (H-H[dW]AW[dF]K-NH2) | - (Unstable (more than 20% decrease in SIM signal after 24 h in degradation solution)) | - (Unstable (more than 20% decrease in SIM signal after 24 h in degradation solution))
